These results are taken from ChEMBL document CHEMBL1136136, “Formylchromone derivatives as a novel class of protein tyrosine phosphatase 1B inhibitors” (Bioorg Med Chem Lett, 2003).

Experiment [1] addresses T1, Tyrosine-protein phosphatase non-receptor type 1 (Homo sapiens, UniProt P18031).
T1 sequence (P18031 whole entry): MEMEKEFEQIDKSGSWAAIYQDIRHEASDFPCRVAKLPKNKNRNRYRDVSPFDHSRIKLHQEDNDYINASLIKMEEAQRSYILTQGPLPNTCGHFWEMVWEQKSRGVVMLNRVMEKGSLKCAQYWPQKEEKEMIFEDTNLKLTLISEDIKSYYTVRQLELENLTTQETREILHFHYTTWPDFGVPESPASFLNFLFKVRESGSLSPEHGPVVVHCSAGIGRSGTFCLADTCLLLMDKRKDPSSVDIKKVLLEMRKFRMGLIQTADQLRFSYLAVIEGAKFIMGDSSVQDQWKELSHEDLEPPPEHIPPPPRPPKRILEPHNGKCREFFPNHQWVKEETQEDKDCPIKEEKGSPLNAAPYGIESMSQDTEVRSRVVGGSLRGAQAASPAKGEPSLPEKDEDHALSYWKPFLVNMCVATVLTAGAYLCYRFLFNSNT
In words: Inhibition of human Protein-tyrosine phosphatase 1B.

The target in experiment [2] is T2, Tyrosine-protein phosphatase non-receptor type 2 (Homo sapiens, UniProt P17706).
T2 sequence (P17706 whole entry): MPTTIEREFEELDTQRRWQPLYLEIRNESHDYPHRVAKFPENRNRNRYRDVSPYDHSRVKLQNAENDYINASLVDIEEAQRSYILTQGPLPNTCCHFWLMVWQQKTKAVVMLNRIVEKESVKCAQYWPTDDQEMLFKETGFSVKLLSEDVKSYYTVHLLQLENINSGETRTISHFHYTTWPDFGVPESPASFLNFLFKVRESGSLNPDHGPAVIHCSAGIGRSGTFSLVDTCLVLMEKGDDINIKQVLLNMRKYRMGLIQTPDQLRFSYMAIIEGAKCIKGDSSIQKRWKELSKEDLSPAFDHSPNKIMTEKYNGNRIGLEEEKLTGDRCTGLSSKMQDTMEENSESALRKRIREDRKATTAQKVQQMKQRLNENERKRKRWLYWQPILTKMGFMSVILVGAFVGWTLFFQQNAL
In words: Compound was tested for selectivity against human T cell protein tyrosine phosphatase. Type of experiment: cell-based.

Experiment [3] addresses Receptor-type tyrosine-protein phosphatase F (Homo sapiens, UniProt P10586). In words: Compound was tested for selectivity against LAR.

Receptor-type tyrosine-protein phosphatase F, sequence (P10586 whole entry): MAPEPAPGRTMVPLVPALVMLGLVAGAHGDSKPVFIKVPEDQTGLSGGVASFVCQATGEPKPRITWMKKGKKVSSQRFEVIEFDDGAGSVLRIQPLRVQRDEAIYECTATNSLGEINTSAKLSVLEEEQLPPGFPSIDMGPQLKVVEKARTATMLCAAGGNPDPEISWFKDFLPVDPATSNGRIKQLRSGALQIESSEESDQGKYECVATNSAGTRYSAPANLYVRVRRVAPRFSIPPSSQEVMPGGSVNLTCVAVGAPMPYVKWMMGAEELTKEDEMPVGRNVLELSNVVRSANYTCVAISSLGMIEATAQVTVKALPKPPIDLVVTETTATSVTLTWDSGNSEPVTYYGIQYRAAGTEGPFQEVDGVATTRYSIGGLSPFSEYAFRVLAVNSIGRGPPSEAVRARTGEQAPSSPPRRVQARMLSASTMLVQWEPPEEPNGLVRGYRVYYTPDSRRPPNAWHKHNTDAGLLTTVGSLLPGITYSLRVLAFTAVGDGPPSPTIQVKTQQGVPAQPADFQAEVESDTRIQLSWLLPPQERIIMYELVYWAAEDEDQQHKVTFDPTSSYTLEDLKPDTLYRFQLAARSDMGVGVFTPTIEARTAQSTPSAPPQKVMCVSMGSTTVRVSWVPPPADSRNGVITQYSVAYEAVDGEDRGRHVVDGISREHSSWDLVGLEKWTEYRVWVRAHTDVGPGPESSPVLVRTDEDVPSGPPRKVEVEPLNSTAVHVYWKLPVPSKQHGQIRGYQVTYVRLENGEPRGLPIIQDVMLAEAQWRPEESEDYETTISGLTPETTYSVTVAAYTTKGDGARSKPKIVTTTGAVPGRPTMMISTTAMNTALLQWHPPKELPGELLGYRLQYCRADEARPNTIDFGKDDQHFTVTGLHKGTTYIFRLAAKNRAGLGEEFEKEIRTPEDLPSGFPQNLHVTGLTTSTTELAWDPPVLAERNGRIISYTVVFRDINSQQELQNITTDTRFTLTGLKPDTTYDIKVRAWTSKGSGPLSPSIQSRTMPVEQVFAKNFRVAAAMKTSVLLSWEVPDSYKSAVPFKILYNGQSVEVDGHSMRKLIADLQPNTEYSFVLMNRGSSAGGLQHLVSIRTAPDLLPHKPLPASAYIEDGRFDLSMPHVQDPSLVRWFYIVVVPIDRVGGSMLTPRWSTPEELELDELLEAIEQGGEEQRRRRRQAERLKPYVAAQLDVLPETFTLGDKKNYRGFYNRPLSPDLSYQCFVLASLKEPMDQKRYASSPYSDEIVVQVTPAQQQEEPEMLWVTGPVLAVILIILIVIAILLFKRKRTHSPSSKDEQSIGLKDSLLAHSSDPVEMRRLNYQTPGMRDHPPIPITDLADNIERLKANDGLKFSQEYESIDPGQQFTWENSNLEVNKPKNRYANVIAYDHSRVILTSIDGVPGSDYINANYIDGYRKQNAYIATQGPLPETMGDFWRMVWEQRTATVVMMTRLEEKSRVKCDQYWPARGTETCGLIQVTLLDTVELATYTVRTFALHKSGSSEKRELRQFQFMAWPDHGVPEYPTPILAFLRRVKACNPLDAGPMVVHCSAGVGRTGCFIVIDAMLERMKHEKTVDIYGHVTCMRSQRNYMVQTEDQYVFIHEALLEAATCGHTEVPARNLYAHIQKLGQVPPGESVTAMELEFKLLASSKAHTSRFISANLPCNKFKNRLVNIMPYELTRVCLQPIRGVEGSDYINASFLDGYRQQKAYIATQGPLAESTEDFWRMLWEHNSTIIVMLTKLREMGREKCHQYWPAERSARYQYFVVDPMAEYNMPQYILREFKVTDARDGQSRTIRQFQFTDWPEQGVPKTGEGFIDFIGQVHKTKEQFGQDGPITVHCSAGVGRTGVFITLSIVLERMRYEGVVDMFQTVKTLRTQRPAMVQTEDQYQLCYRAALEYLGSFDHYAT

With `CC(C)c1ccc2occ(C=O)c(=O)c2c1`, the IC50 in experiment [1] is 22 µM.
The molecule `O=Cc1coc2ccc([N+](=O)[O-])cc2c1=O` came in with an IC50 in experiment [1] of 91 µM. Compared with the last molecule, the IC50 is about 4.1-fold higher.
`O=C(O)c1coc2ccccc2c1=O` had an IC50 in experiment [1] above 1000 µM.
In experiment [1], `O=Cc1coc2c(Br)cc(Br)cc2c1=O` registered a concentration for half-maximal inhibition (IC50) of 20 µM.
The molecule `O=Cc1coc2ccc(Cl)cc2c1=O` gave an IC50 in experiment [1] of 28 µM.
For `O=Cc1coc2c(Cl)cc(Cl)cc2c1=O`, the 50% inhibitory concentration (IC50) in experiment [1] came to 25 µM.
`O=Cc1coc2ccc(Br)cc2c1=O` came in with a concentration for half-maximal inhibition (IC50) in experiment [1] of 20 µM.
On to `O=Cc1coc2ccccc2c1=O`, for which the IC50 in experiment [1] stood at 73 µM. This IC50 is about 3.6-fold higher than that of the molecule before.
Consider `O=Cc1coc2c(ccc3ccccc32)c1=O`, for which, in experiment [1], the 50% inhibitory concentration (IC50) turned out to be 25 µM.
Turning to `O=Cc1coc2ccc3ccccc3c2c1=O`, the IC50 in experiment [2] was 780 µM; in experiment [3] it was above 1000 µM; in experiment [1], 14 µM.
With `Nc1oc2ccccc2c(=O)c1C=O`, the IC50 in experiment [1] is above 1000 µM.
For `O=Cc1coc2ccc(-c3ccc(-c4ccccc4)cc3)cc2c1=O`, the 50% inhibitory concentration (IC50) in experiment [2] is 51 µM; in experiment [3], above 1000 µM; in experiment [1], 4.3 µM.
`Cc1cc2occ(C=O)c(=O)c2cc1Cl` gave a half-maximal inhibitory concentration (IC50) in experiment [1] of 18 µM.
`O=Cc1coc2ccc(F)cc2c1=O` registered an IC50 in experiment [1] of 55 µM.
As for `O=Cc1coc2ccc(-c3ccccc3)cc2c1=O`, the results for the IC50 in experiment [2], in experiment [3] and in experiment [1] were 240 µM, above 1000 µM and 14 µM, respectively.
The molecule `O=C(O)c1cc(=O)c2ccccc2o1` [CHROMOCARB] had an IC50 in experiment [1] above 1000 µM.
The same measure, in the same setting: under `O=C(O)c1cc2ccccc2oc1=O` [COUMARIN-3-CARBOXYLIC ACID] stands above 1000 µM.

By IC50 is commonly meant the concentration that gives 50% inhibition. Lower therefore signals higher potency.
